Some test systems named below: COLO 205 colon; HCT-15 colon; IGROV1 ovarian; NCI-H23 lung; SK-OV-3 ovarian; SN12C renal; TK-10 renal; U251 CNS.
What all share (assay): growth of human tumour cells (NCI), 48 h

From PubChem BioAssay (NCI) come the findings set out here.

Each structure is given as a SMILES string.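 Briefly, cells in 96-well plates were exposed to five compound concentrations for 48 h, and endpoints were estimated by linear interpolation. GI50 is the concentration that inhibits growth by half. TGI: total growth inhibition.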

As to `O=C(Nc1cccc(C(F)(F)F)c1)c1cc2ccccc2cc1O`, the GI50 with COLO 205 colon was 1.9 µM; in the assay on HCT-15 colon, 2.34 µM; in the assay on IGROV1 ovarian, 2.88 µM; in the assay with NCI-H23 lung, 0.67 µM; in the assay with SK-OV-3 ovarian, 1.55 µM; in the assay on SN12C renal, 1.49 µM. Further, the GI50 in the assay on TK-10 renal is 3.97 µM; in the assay with U251 CNS, 1.23 µM. Also, the TGI in the assay with COLO 205 colon was 4.6 µM; with HCT-15 colon, more than 100 µM; in the assay with IGROV1 ovarian, more than 57.7 µM; in the assay with NCI-H23 lung, 8.14 µM; in the assay with SK-OV-3 ovarian, 6.32 µM; in the assay with SN12C renal it was more than 100 µM. Also, the values for the TGI in the assay on TK-10 renal and in the assay on U251 CNS were more than 41.4 µM and more than 100 µM, respectively.
For `Cc1ccc(-c2n[nH]c(=O)c3noc(-c4ccc(C)cc4)c23)cc1`, the GI50 in the assay with COLO 205 colon was 0.752 µM; in the assay on HCT-15 colon, 0.651 µM; in the assay with IGROV1 ovarian it was 1.89 µM; in the assay on NCI-H23 lung it was 4.86 µM; in the assay with SK-OV-3 ovarian, 1.51 µM; in the assay on SN12C renal, 1.4 µM. For the same compound, the GI50 was 2.35 µM in the assay on TK-10 renal and 0.814 µM with U251 CNS. Moreover, the TGI in the assay on COLO 205 colon is 5.05 µM; in the assay with HCT-15 colon it was more than 100 µM; in the assay with IGROV1 ovarian it was 28.6 µM; in the assay with NCI-H23 lung, more than 100 µM; in the assay with SK-OV-3 ovarian, 11.5 µM; in the assay with SN12C renal, more than 100 µM. Further, the TGI was found to be 14.2 µM in the assay on TK-10 renal and 18.8 µM with U251 CNS.
Turning to `Cc1cc2nc(-c3c(F)cccc3Cl)n(Cc3c(F)cccc3Cl)c2cc1C`, the GI50 with COLO 205 colon is 11.6 µM; in the assay on HCT-15 colon it was 13.9 µM; in the assay on IGROV1 ovarian it was 33 µM; in the assay with NCI-H23 lung, 9.49 µM; in the assay with SK-OV-3 ovarian, 19.3 µM; in the assay on SN12C renal, 11.7 µM. Besides, the GI50 with TK-10 renal is 15.1 µM; in the assay with U251 CNS, 14.1 µM. Moreover, the TGI in the assay with COLO 205 colon was 26.3 µM; in the assay on HCT-15 colon, 33.3 µM; in the assay with IGROV1 ovarian, more than 100 µM; in the assay on NCI-H23 lung, 22.9 µM; with SK-OV-3 ovarian, 51.8 µM; in the assay on SN12C renal, 24.2 µM. The TGI amounted to 46.5 µM with TK-10 renal and 29.9 µM in the assay on U251 CNS.
Take `O=C(/C=C/c1cccc2ccccc12)Nc1ncc(Cc2ccccc2)s1`: the GI50 is 1.48 µM in the assay with COLO 205 colon; 0.507 µM in the assay on HCT-15 colon; 1.27 µM in the assay with IGROV1 ovarian; 1.58 µM in the assay on NCI-H23 lung; 1.71 µM in the assay with SK-OV-3 ovarian; 1.16 µM in the assay with SN12C renal. The GI50 was 1.69 µM in the assay on TK-10 renal and 0.818 µM in the assay with U251 CNS. Moreover, the TGI in the assay on COLO 205 colon was more than 100 µM; with HCT-15 colon, more than 100 µM; with IGROV1 ovarian, more than 87.3 µM; in the assay with NCI-H23 lung it was more than 100 µM; with SK-OV-3 ovarian, more than 29.9 µM; in the assay with SN12C renal, more than 100 µM. In addition, the TGI in the assay on TK-10 renal was 4.87 µM; in the assay with U251 CNS, 4.67 µM.
On to `COc1ccc(-c2nc(C(=O)c3ccccc3)n(CC(=O)c3ccc(Cl)cc3)c2-c2ccc(OC)cc2)cc1`, for which the GI50 in the assay on COLO 205 colon, in the assay with HCT-15 colon, in the assay with IGROV1 ovarian, in the assay on NCI-H23 lung, with SK-OV-3 ovarian and with SN12C renal was more than 100 µM throughout. In addition, the GI50 in the assay on TK-10 renal and in the assay on U251 CNS was more than 100 µM throughout. Further, the TGI with COLO 205 colon, with HCT-15 colon, in the assay with IGROV1 ovarian, in the assay on NCI-H23 lung, in the assay with SK-OV-3 ovarian and in the assay on SN12C renal was more than 100 µM throughout. In addition, the TGI in the assay on TK-10 renal and in the assay on U251 CNS was more than 100 µM in each case.
With `CNC(c1ccncc1)C(NC)c1ccncc1` (centres undefined), the TGI in the assay with COLO 205 colon, with HCT-15 colon, in the assay with IGROV1 ovarian, in the assay with NCI-H23 lung, in the assay on SK-OV-3 ovarian and in the assay on SN12C renal was more than 100 µM in each case. The TGI in the assay on TK-10 renal and with U251 CNS was more than 100 µM in each case.
Take `CCCOC(=O)C1C2CCC(O2)C1C(=O)O` (centres undefined): the TGI with COLO 205 colon, with HCT-15 colon, in the assay with IGROV1 ovarian, in the assay on NCI-H23 lung, with SK-OV-3 ovarian and with SN12C renal was more than 100 µM throughout. For the same compound, the TGI with TK-10 renal and in the assay on U251 CNS was more than 100 µM throughout.
For the compound `COc1cccc(NC2=C(Cl)C(=O)N(Cc3ccc(Cl)cc3)C2=O)c1`, the GI50 in the assay on COLO 205 colon was 4.96 µM; in the assay with HCT-15 colon, 1.05 µM; in the assay with IGROV1 ovarian, 11.9 µM; with NCI-H23 lung it was 2.84 µM; with SK-OV-3 ovarian, 8.09 µM; with SN12C renal it was 2.61 µM. Also, the GI50 is 3.45 µM in the assay with TK-10 renal and 1.24 µM in the assay with U251 CNS. In addition, the TGI with COLO 205 colon was 39.8 µM; in the assay with HCT-15 colon it was 8.62 µM; in the assay on IGROV1 ovarian it was more than 37.4 µM; with NCI-H23 lung, 9.81 µM; with SK-OV-3 ovarian, 60.6 µM; with SN12C renal, 12.9 µM. Further, the TGI with TK-10 renal was 27.3 µM; with U251 CNS, more than 34.6 µM.
As to `Cn1cc(C2=C(c3cn(CCCCC(=N)N)c4ccccc34)C(=O)NC2=O)c2ccccc21`, the GI50 in the assay with COLO 205 colon was 11.8 µM; with HCT-15 colon, more than 25 µM; with IGROV1 ovarian, more than 21.9 µM; with NCI-H23 lung it was more than 25 µM; in the assay with SK-OV-3 ovarian, more than 25 µM; with SN12C renal, more than 25 µM. Also, the GI50 is more than 25 µM with TK-10 renal and 17.2 µM in the assay on U251 CNS. In addition, the TGI in the assay on COLO 205 colon, in the assay on HCT-15 colon, with IGROV1 ovarian, in the assay on NCI-H23 lung, in the assay with SK-OV-3 ovarian and in the assay on SN12C renal was more than 25 µM in each case. The TGI in the assay with TK-10 renal and with U251 CNS was more than 25 µM in each case.
As to `Cc1c(Cl)cccc1NC(=O)c1sc2nc3c(cc2c1N)CCCC3`, the GI50 was 0.719 µM with COLO 205 colon; 0.392 µM with HCT-15 colon; 0.82 µM with IGROV1 ovarian; 9.15 µM with NCI-H23 lung; 0.444 µM in the assay with SK-OV-3 ovarian; 5.88 µM with SN12C renal. Besides, the GI50 in the assay with TK-10 renal is more than 100 µM; with U251 CNS, 0.504 µM. In addition, the TGI with COLO 205 colon, with HCT-15 colon, with IGROV1 ovarian, in the assay on NCI-H23 lung, in the assay with SK-OV-3 ovarian and in the assay with SN12C renal was more than 100 µM each time. Further, the TGI in the assay with TK-10 renal and in the assay on U251 CNS was more than 100 µM throughout.
